From patent publication US11617777B2, “Cytotoxic and anti-mitotic compounds, and methods of using the same” (ZYMEWORKS BC INC., priority 2013, dated 2023) come the findings set out here.

Like-named read-outs stand apart in the source and are kept apart here.

What is called EC50 is the concentration that produces a half-maximal response.

Assay in all cases: Cytotoxicity of compounds, CellTiter-Glo
(In general: Cellular ATP, detected with luciferase, serves as a proxy for viable cell number.)

The test system of one experiment is NCI-N87. It is filed as cell-based. Conditions: Homo sapiens, Table 5, read-out: Cytotoxicity (EC50) NCI-N87. The text has this:
(§1) FIG. 1 summarizes the data for compounds A, B, C, D, and E when tested using the Human mammary carcinoma cell line HCC1954 or Human T-cell leukemia cell line Jurkat. FIGS. 2-6 show the cytotoxicity data plots for individual compounds A-E. Tables 2-6 summarize the results of additional cytotoxicity assays.
(§2) Cell lines used: Human T-cell leukemia cell line Jurkat (ATCC: TIB-152); HCC1954 (ATCC: CRL. 2338); Human Pancreatic cells lines: AsPC-1 (ATCC: CRL-1682), BxPC-3 (ATCC: CRL.1687), HPAF-II (ATCC: CRL.1997), MiaPaCa2 (ATCC: CRL.1420), PANC-1 (ATCC: CRL.1469), Capan-1 (ATCC: HTB-79), Capan-2 (ATCC: HTB-80) and the Human gastric carcinoma cell line NCI-N87 (ATCC: CRL. 5822); AML-193 (ATCC: CRL.9589), CCRF-CEM (ATCC: CCL-119), DU145 (ATCC: HTB-81), PC-3 (ATCC: CRL.1435), A-431 (ATCC: CRL.1555), HT-29 (ATCC: HTB-38), A-172 (ATCC: CRL.1620), NCI-H358 (ATCC: CRL.5807), A549 (ATCC: CCL-185), Colo-205 (ATCC: CCL-222), MDA-MB-231 (ATCC: HTB-26), OVCAR-3 (ATCC: HTB-161), OV-90 (ATCC: CRL.11732), OE19 (Sigma: 96071721), RT 112/84 (Sigma: 85061106).
(§3) On the day prior to adding compounds, HCC1954 AsPC-1, BxPC-3, HPAF-II, MiaPaCa2, PANC-1, Capan-1, Capan-2 and NCI-N87 cells were added to opaque-walled 96-well tissue culture-treated microtiter plates using complete growth medium at a density of 2500 cells/100 microlitre (uL) of medium. These adherant cell lines cells were incubated for one night at 37° C./5% CO2 to allow the cells to attach to the microtiter plate surface. On the day that compounds were added, Jurkat cells are added to separate 96-well microtiter plates at 2500 cells/100 uL using the same growth medium as HCC1954. Compound were first serially diluted using dimethyl sulfoxide, and then the prepared dilutions are added to complete growth medium at five-times the final concentration—compounds were then titrated 1:3, eight steps. A control with no compound (growth medium alone) was included on each microtiter plate in sextuplicate. The prepared compounds titrations were added (twenty-five uL/well) in triplicate. The cells and compound titrations were incubated at 37° C./5% CO2 for three nights. After the incubation, cell viability is measured using CellTiter-Glo® reagent by adding thirty uL of prepared CellTiter-Glo® to each assay well. The assay is incubated for at least twenty minutes in the dark prior to measuring emitted luminescence using a microplate luminometer (500 ms integration time). The collected relative luminescence units (RLU) are converted to % cytotoxicity using the Growth medium alone control mentioned above (% Cytotoxicity=1−[Well RLU/average medium alone control RLU]).
(§4) GraphPad Prism was used for generation of EC50 values using three parameter non-linear regression curve fitting.

Another experiment has as its system Jurkat cells. It counts as cell-based, Human. Conditions: Homo sapiens, Jurkat. In outline: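 HCC1954 plated at 2500 cells/100 uL and attached overnight; Jurkat plated at 2500 cells/100 uL on the day of dosing. Cells exposed to 8-step 1:3 compound titrations for three nights at 37° C./5% CO2, in triplicate. CellTiter-Glo luminescence converted to % cytotoxicity versus medium-only control; EC50 by three-parameter nonlinear regression.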

The next experiment has as its system BxPC-3. It is filed as cell-based. Particulars: Homo sapiens, Table 5, read-out: Cytotoxicity (EC50) BxPC-3.
Source text: as §1, §2, §3, §4

For a further experiment, the system named is MiaPaCa2. It is filed as cell-based. Conditions: Homo sapiens, MIA PaCa-2; Table 5; MinPaCa2; read-out: Cytotoxicity (EC50) MinPaCa2.
Source text: as §1, §2, §3, §4

The test system of another experiment is HPAF-II. It counts as cell-based. Conditions: Homo sapiens, Table 5, read-out: Cytotoxicity (EC50) HPAF-II.
Source text: as §1, §2, §3, §4

A further experiment relates to AsPC-1. It is filed as cell-based. Particulars: Homo sapiens, ASPC1, Table 5, read-out: Cytotoxicity (EC50) AsPC-1.
Source text: as §1, §2, §3, §4

A further experiment has as its system PANC-1. It counts as cell-based. Particulars: Homo sapiens, Table 5, read-out: Cytotoxicity (EC50) PANC-1.
Source text: as §1, §2, §3, §4

Another experiment deals with HCC1954 cells. It counts as cell-based. Conditions: Homo sapiens.
Source text: as §2, §3, §4

Setting [1] is: Table 3, Cytotoxicity of Compounds on Jurkat Cells, read-out: EC50.
[2] abbreviates: HCC1954, Table 4, Cytotoxicity of Compounds on HCC-1954 Cells, read-out: EC50.
The mark [3] stands for this setting: Table 1, Jurkat cells (HER2−), three nights, read-out: Jurkat cells (HER2−) EC50.
Where [4] appears, read: Table 2, HCC1954, read-out: HCC1954 EC50.

`CN[C@H](C(=O)N[C@H](C(=O)N(C)[C@H](/C=C(\C)C(=O)NS(=O)(=O)c1ccc(NC(=O)C(F)(F)F)cc1)C(C)C)C(C)(C)C)C(C)(C)c1ccccc1` [Compound 23, (S,E)-2,5-dimethyl-N-(4-(2,2,2-trifluoroacetamido)phenylsulfonyl)-4-((S)—N,3,3-trimethyl-2-((S)-3-methyl-2-(methylamino)-3-phenylbutanamido)butanamido)hex-2-enamide]: the EC50 amounted to 0.402 nM in the experiment on NCI-N87 and 0.031 nM in the experiment with Jurkat cells (setting [1]).

Consider `CN[C@H](C(=O)N[C@H](C(=O)N(C)[C@H](/C=C(\C)C(=O)NS(=O)(=O)c1ccc(N)cc1)C(C)C)C(C)(C)C)C(C)(C)c1ccccc1` [Compound 24, (S,E)-N-(4-aminophenylsulfonyl)-2,5-dimethyl-4-((S)—N,3,3-trimethyl-2-((S)-3-methyl-2-(methylamino)-3-phenylbutanamido)butanamido)hex-2-enamide], for which the EC50 turned out to be 0.27 nM in the experiment with BxPC-3; 0.566 nM with MiaPaCa2; 0.396 nM in the experiment with HPAF-II; 0.586 nM in the experiment with AsPC-1; 2.18 nM in the experiment with PANC-1; 0.07 nM in the experiment with Jurkat cells (setting [1]).

In the case of `CN[C@H](C(=O)N[C@H](C(=O)N(C)[C@H](/C=C(\C)C(=O)NS(=O)(=O)c1ccc(C2(N)CC2)cc1)C(C)C)C(C)(C)C)C(C)(C)c1ccccc1` [Compound 63, (S,E)-N-(4-(1-aminocyclopropyl)phenylsulfonyl)-2,5-dimethyl-4-((S)—N,3,3-trimethyl-2-((S)-3-methyl-2-(methylamino)-3-phenylbutanamido)butanamido) hex-2-enamide], the half-maximal effective concentration (EC50) in the experiment on BxPC-3 was determined as 0.697 nM; in the experiment on MiaPaCa2, 1.02 nM; with HPAF-II, 0.826 nM; in the experiment on AsPC-1 it was 0.97 nM; in the experiment on PANC-1, 4 nM.

As for `CN[C@H](C(=O)N[C@H](C(=O)N(C)[C@H](/C=C(\C)C(=O)NS(=O)(=O)Cc1ccc(CN)cc1)C(C)C)C(C)(C)C)C(C)(C)c1ccccc1` [Compound 77, (S,E)-N-(4-(aminomethyl)benzylsulfonyl)-2,5-dimethyl-4-((S)—N,3,3-trimethyl-2-((S)-3-methyl-2-(methylamino)-3-phenylbutanamido)butanamido)hex-2-enamide], the EC50 in the experiment on BxPC-3 was 36.5 nM; with MiaPaCa2, 94.3 nM; in the experiment with HPAF-II, 17.2 nM; in the experiment on AsPC-1, 15.5 nM; in the experiment with PANC-1 it was 97.2 nM.

For the compound `CN[C@H](C(=O)N[C@H](C(=O)N(C)[C@H](/C=C(\C)C(=O)NS(=O)(=O)Cc1ccc(NC(=O)C(F)(F)F)cc1)C(C)C)C(C)(C)C)C(C)(C)c1ccccc1` [Compound 79, (S,E)-2,5-dimethyl-N-(4-(2,2,2-trifluoroacetamido)benzylsulfonyl)-4-((S)—N,3,3-trimethyl-2-((S)-3-methyl-2-(methylamino)-3-phenylbutanamido)butanamido)hex-2-enamide], the half-maximal effective concentration (EC50) in the experiment with Jurkat cells (setting [1]) came out at 0.386 nM; in the experiment with HCC1954 cells (setting [2]), 0.241 nM.

With `CN[C@H](C(=O)N[C@H](C(=O)N(C)[C@H](/C=C(\C)C(=O)NS(=O)(=O)Cc1ccc(N)cc1)C(C)C)C(C)(C)C)C(C)(C)c1ccccc1` [Compound 80, (S,E)-N-(4-aminobenzylsulfonyl)-2,5-dimethyl-4-((S)—N,3,3-trimethyl-2-((S)-3-methyl-2-(methylamino)-3-phenylbutanamido)butanamido)hex-2-enamide], the concentration for a half-maximal effect (EC50) is 0.389 nM with Jurkat cells (setting [1]) and 0.207 nM in the experiment on HCC1954 cells (setting [2]).

As to `C/C(=C\[C@H](C(C)C)N(C)C(=O)[C@@H](NC(=O)[C@@H]1CCCCN1C(C)C)C(C)(C)C)C(=O)NS(=O)(=O)CCCS` [Compound 115, (S)-1-isopropyl-N—((S)-1-(((S,E)-6-(3-mercaptopropylsulfonamido)-2,5-dimethyl-6-oxohex-4-en-3-yl)(methyl)amino)-3,3-dimethyl-1-oxobutan-2-yl)piperidine-2-carboxamide], the EC50 in the experiment with Jurkat cells (setting [1]) turned out to be 36 nM; with HCC1954 cells (setting [2]), 172 nM.

For the compound `CN[C@H](C(=O)N[C@H](C(=O)N(C)[C@H](/C=C(\C)C(=O)NS(=O)(=O)c1ccc(C)cc1)C(C)C)C(C)(C)C)C(C)(C)c1ccccc1` [Compound D, (S,E)-2,5-dimethyl-N-tosyl-4-((S)—N,3,3-trimethyl-2-((S)-3-methyl-2-(methylamino)-3-phenylbutanamido)butanamido)hex-2-enamide], the EC50 was determined as 0.0664 nM in the experiment with BxPC-3; 0.136 nM in the experiment with MiaPaCa2; 0.177 nM in the experiment on HPAF-II; 0.272 nM with NCI-N87; 0.17 nM in the experiment on AsPC-1; 0.806 nM in the experiment on PANC-1. The half-maximal effective concentration (EC50) in the experiment on Jurkat cells (setting [3]) came to 0.043 nM; in the experiment on Jurkat cells (Table 2, read-out: Jurkat EC50), 0.04 nM; in the experiment with Jurkat cells (setting [1]), 0.033 nM; with HCC1954 cells (setting [2]), 0.06 nM; in the experiment on HCC1954 cells (setting [4]), 0.06 nM.

As for `CN[C@H](C(=O)N[C@H](C(=O)N(C)[C@H](/C=C(\C)C(=O)NS(C)(=O)=O)C(C)C)C(C)(C)C)C(C)(C)c1ccccc1` [Compound E, (S,E)-2,5-dimethyl-N-(methylsulfonyl)-4-((S)—N,3,3-trimethyl-2-((S)-3-methyl-2-(methylamino)-3-phenylbutanamido)butanamido)hex-2-enanmide], the EC50 is 1.67 nM in the experiment on Jurkat cells (setting [3]); 1.67 nM in the experiment on Jurkat cells (Table 2, read-out: Jurkat EC50); 1.67 nM in the experiment with Jurkat cells (setting [1]); 0.79 nM in the experiment on HCC1954 cells (setting [2]); 0.79 nM with HCC1954 cells (Table 1, HCC1954 cells (HER2+), three nights, read-out: HCC1954 cells (HER2+) EC50); 0.79 nM in the experiment with HCC1954 cells (setting [4]).
